One experiment has as its system Trichomonas hominis. Description: in vitro protozoicidal test on watch glass, LD50/LD100. The experiment is classed as cell-based.
In the next experiment the test system is Gregarina blattarum. Description: in vitro protozoicidal test on gregarines isolated from cockroaches, in Ringer's solution. The experiment is classed as cell-based. The conditions noted are these: for LD100: 100% mortality within 3 minutes. The text has this: For in vitro tests of antiprotozoal activity of the composition five reference organisms representing taxonomic groups to which pathogenic protozoa belong were selected, i.e: • Amoeba proteus—Chaos diffluens—a protozoan of the order Euamoebida, belonging to fifth supergroup of the Amoebozoa, living in waters. • Paramecium caudatum—a slipper animalcule representing the Ciliata orachs, living in waters. • Gregarina blattarum—gregarine isolated from cockroaches, representing the phylum Apicomplexa, living in the digestive tracts or body cavities of invertebrates. • Euglena gracilis—a protozoan living in water, representing the flagellates—Mastigophora, family Euglenaceae. • Trichomonas hominis—a protozoan living in the human colon, representing the Trichomonadidae.
The gregarines were isolated from the cockroaches and, after being placed on a watch slide, were treated with the products at different concentrations in Ringer's solution. Each sample contained ten individuals.
The compositions, negative controls, and positive controls were dissolved in an aqueous solution of polysorbate 80 (0.05%) before application to a watch slide.
After this time, the reaction product was filtered through filter paper. […] Compositions I and II were then analysed for their antiprotozoal properties. […]
The tested preparations were dissolved in an aqueous solution of polysorbate 80 (0.05%) before being applied to a watch glass. […] Observation under a fluorescence microscope with phase contrast was carried out.

The test system of the next experiment is Amoeba proteus. Briefly: in vitro protozoicidal test on watch glass, LD50/LD100. The experiment is classed as cell-based.
The test system of the next experiment is Trypanosoma cruzi. The conditions noted are these: read-out: inhibitory effect on 50% of the population (IC50); cited from earlier work.
Experiment [1] concerns Trypanosoma cruzi and Leishmania chagasi. The conditions noted are these: cited from earlier work.
Experiment [2] concerns Trypanosoma cruzi and different Leishmania species. The conditions noted are these: cited from earlier work.
The mark [3] stands for this setting: 100% mortality within 3 minutes.

Values joined by “and” are separate entries in the source; they are usually repeats but may differ in a detail not shown here. Identical values can stand only once.

With `Cc1ncc([N+](=O)[O-])n1CCO` [M, metronidazole], the LD50 with Trichomonas hominis (50% mortality within 3 minutes) is 0.05% and 0.08%; in the experiment with Gregarina blattarum (50% mortality within 3 minutes) it was 0.13% and 0.3%; in the experiment on Amoeba proteus (50% mortality within 3 minutes), 0.3%. For the same compound, the LD100 in the experiment with Trichomonas hominis (setting [3]) is 0.1% and 0.15%; in the experiment on Gregarina blattarum, 0.3%; with Amoeba proteus (setting [3]), 0.5%.

One may read the IC50 as the concentration at which inhibition is half-maximal. In the case of `CC1CS(=O)(=O)CCN1/N=C/c1ccc([N+](=O)[O-])o1` (stereo not shown) [Nifurtimox], the half-maximal inhibitory concentration (IC50) with Trypanosoma cruzi is 6 µM; in experiment [1] it was 0.3 to 0.4 µg/mL.

As for `O=C(Cn1ccnc1[N+](=O)[O-])NCc1ccccc1` [benznidazole], the “values obtained (in vitro antiprotozoal activity)” value in experiment [2] was 45.02 µg/mL.

“copper carbonate [Copper carbonate solution]”: the LD100 with Gregarina blattarum was 0.37%.

(Values after patent US20230263752A1, “VETERINARY COMPOSITIONS FOR THE TREATMENT AND/OR PREVENTION OF PROTOZOAN DISEASES AND METHODS OF PREPARATION THEREOF” (ADIFEED SP. Z O. O., priority 2020, published 2023).)
